Data published in ChEMBL document CHEMBL1833882, “Preparation and antibacterial evaluation of decarboxylated fluoroquinolones” (2011).
≈ marks a conversion by molar mass, not a printed value.

System: Staphylococcus aureus
Assay: Antibacterial activity against methicillin-resistant Staphylococcus aureus 1094 after 18 hrs by broth dilution method
Format: functional
Conditions: Staphylococcus aureus, 1094, 18 h

| SMILES | MIC [µg/mL] |
| --- | --- |
| CC1CN(c2c(F)cc3c(=O)ccn(C4CC4)c3c2F)CCN1 (stereo not given) | > 80 |
| CCn1ccc(=O)c2cc(F)c(N3CCNCC3)cc21 | > 80 |
| O=c1ccn(C2CC2)c2cc(N3CCNCC3)c(F)cc12 | > 80 |

System: Pseudomonas aeruginosa
Assay: Antibacterial activity against Pseudomonas aeruginosa PAO1 harboring oprM deltamexAB after 18 hrs by broth dilution method
Format: functional
Conditions: PAO1, 18 h

| SMILES | MIC [µg/mL] |
| --- | --- |
| CC1CN(c2c(F)cc3c(=O)ccn(C4CC4)c3c2F)CCN1 (stereo not given) | 40 (≈ 125 µM) |
| CCn1ccc(=O)c2cc(F)c(N3CCNCC3)cc21 | 40 (≈ 145 µM) |
| O=c1ccn(C2CC2)c2cc(N3CCNCC3)c(F)cc12 | 80 (≈ 278 µM) |

System: Pseudomonas aeruginosa
Assay: Antibacterial activity against Pseudomonas aeruginosa PAO1 ATCC BAA-47 after 18 hrs by broth dilution method
Format: functional
Conditions: PAO1 ATCC BAA-47, 18 h

| SMILES | MIC [µg/mL] |
| --- | --- |
| CC1CN(c2c(F)cc3c(=O)ccn(C4CC4)c3c2F)CCN1 (stereo not given) | > 80 |
| CCn1ccc(=O)c2cc(F)c(N3CCNCC3)cc21 | > 80 |
| O=c1ccn(C2CC2)c2cc(N3CCNCC3)c(F)cc12 | > 80 |

System: Escherichia coli
Assay: Antibacterial activity against Escherichia coli 700 expressing TolC after 18 hrs by broth dilution method
Format: functional
Conditions: Escherichia coli, 700, 18 h

| SMILES | MIC [µg/mL] |
| --- | --- |
| CC1CN(c2c(F)cc3c(=O)ccn(C4CC4)c3c2F)CCN1 (stereo not given) | > 80 |
| CCn1ccc(=O)c2cc(F)c(N3CCNCC3)cc21 | 40 (≈ 145 µM) |
| O=c1ccn(C2CC2)c2cc(N3CCNCC3)c(F)cc12 | > 80 |

System: Enterococcus faecalis
Assay: Antibacterial activity against vancomycin-resistant Enterococcus faecalis ATCC 51575 after 18 hrs by broth dilution method
Format: functional
Conditions: ATCC 51575, 18 h

| SMILES | MIC [µg/mL] |
| --- | --- |
| CC1CN(c2c(F)cc3c(=O)ccn(C4CC4)c3c2F)CCN1 (stereo not given) | > 80 |
| CCn1ccc(=O)c2cc(F)c(N3CCNCC3)cc21 | > 80 |
| O=c1ccn(C2CC2)c2cc(N3CCNCC3)c(F)cc12 | > 80 |

System: Escherichia coli
Assay: Antibacterial activity against TolC deficient Escherichia coli 701 after 18 hrs by broth dilution method
Format: functional
Conditions: Escherichia coli, 701, 18 h

| SMILES | MIC [µg/mL] |
| --- | --- |
| CC1CN(c2c(F)cc3c(=O)ccn(C4CC4)c3c2F)CCN1 (stereo not given) | 15 (≈ 47 µM) |
| CCn1ccc(=O)c2cc(F)c(N3CCNCC3)cc21 | 5 (≈ 18.2 µM) |
| O=c1ccn(C2CC2)c2cc(N3CCNCC3)c(F)cc12 | > 80 |

System: Burkholderia cepacia
Assay: Antibacterial activity against Burkholderia cepacia ATCC 39277 after 18 hrs by broth dilution method
Format: functional
Conditions: ATCC 39277, 18 h

| SMILES | MIC [µg/mL] |
| --- | --- |
| CC1CN(c2c(F)cc3c(=O)ccn(C4CC4)c3c2F)CCN1 (stereo not given) | > 80 |
| CCn1ccc(=O)c2cc(F)c(N3CCNCC3)cc21 | > 80 |
| O=c1ccn(C2CC2)c2cc(N3CCNCC3)c(F)cc12 | > 80 |

System: Stenotrophomonas maltophilia
Assay: Antibacterial activity against Stenotrophomonas maltophilia ATCC 13637 after 18 hrs by broth dilution method
Format: functional
Conditions: ATCC 13637, 18 h

| SMILES | MIC [µg/mL] |
| --- | --- |
| CC1CN(c2c(F)cc3c(=O)ccn(C4CC4)c3c2F)CCN1 (stereo not given) | > 80 |
| CCn1ccc(=O)c2cc(F)c(N3CCNCC3)cc21 | > 80 |
| O=c1ccn(C2CC2)c2cc(N3CCNCC3)c(F)cc12 | > 80 |

System: Bacillus subtilis
Assay: Antibacterial activity against Bacillus subtilis BD54 after 18 hrs by broth dilution method
Format: functional
Conditions: BD54, 18 h

| SMILES | MIC [µg/mL] |
| --- | --- |
| CC1CN(c2c(F)cc3c(=O)ccn(C4CC4)c3c2F)CCN1 (stereo not given) | > 80 |
| CCn1ccc(=O)c2cc(F)c(N3CCNCC3)cc21 | 80 (≈ 291 µM) |
| O=c1ccn(C2CC2)c2cc(N3CCNCC3)c(F)cc12 | > 80 |

System: Staphylococcus aureus
Assay: Antibacterial activity against Staphylococcus aureus ATCC 25923 after 18 hrs by broth dilution method
Format: functional
Conditions: ATCC 25923, 18 h

| SMILES | MIC [µg/mL] |
| --- | --- |
| CC1CN(c2c(F)cc3c(=O)ccn(C4CC4)c3c2F)CCN1 (stereo not given) | > 80 |
| CCn1ccc(=O)c2cc(F)c(N3CCNCC3)cc21 | > 80 |
| O=c1ccn(C2CC2)c2cc(N3CCNCC3)c(F)cc12 | > 80 |

System: Bacillus anthracis
Assay: Antibacterial activity against Bacillus anthracis Sterne after 18 hrs by broth dilution method
Format: functional
Conditions: not given

| SMILES | MIC [µg/mL] |
| --- | --- |
| CC1CN(c2c(F)cc3c(=O)ccn(C4CC4)c3c2F)CCN1 (stereo not given) | 80 (≈ 251 µM) |
| CCn1ccc(=O)c2cc(F)c(N3CCNCC3)cc21 | 80 (≈ 291 µM) |
| O=c1ccn(C2CC2)c2cc(N3CCNCC3)c(F)cc12 | > 80 |

System: Burkholderia cepacia
Assay: Antibacterial activity against Burkholderia cepacia ATCC 55792 after 18 hrs by broth dilution method
Format: functional
Conditions: ATCC 55792, 18 h

| SMILES | MIC [µg/mL] |
| --- | --- |
| CC1CN(c2c(F)cc3c(=O)ccn(C4CC4)c3c2F)CCN1 (stereo not given) | > 80 |
| CCn1ccc(=O)c2cc(F)c(N3CCNCC3)cc21 | > 80 |
| O=c1ccn(C2CC2)c2cc(N3CCNCC3)c(F)cc12 | > 80 |

System: Staphylococcus aureus
Assay: Antibacterial activity against Staphylococcus aureus ATCC 25923 after 16 to 18 hrs by agar dilution method
Format: functional
Conditions: not given

| SMILES | MIC [µg/mL] |
| --- | --- |
| CC1CN(c2c(F)cc3c(=O)ccn(C4CC4)c3c2F)CCN1 (stereo not given) | > 64 |
| CCn1ccc(=O)c2cc(F)c(N3CCNCC3)cc21 | > 64 |
| O=c1ccn(C2CC2)c2cc(N3CCNCC3)c(F)cc12 | > 64 |

System: Enterococcus faecalis
Assay: Antibacterial activity against Enterococcus faecalis ATCC 29212 after 16 to 18 hrs by agar dilution method
Format: functional
Conditions: not given

| SMILES | MIC [µg/mL] |
| --- | --- |
| CC1CN(c2c(F)cc3c(=O)ccn(C4CC4)c3c2F)CCN1 (stereo not given) | > 64 |
| CCn1ccc(=O)c2cc(F)c(N3CCNCC3)cc21 | 32 (≈ 116 µM) |
| O=c1ccn(C2CC2)c2cc(N3CCNCC3)c(F)cc12 | > 64 |

System: Escherichia coli
Assay: Antibacterial activity against Escherichia coli ATCC 29425 after 18 hrs by broth dilution method
Format: functional
Conditions: ATCC 29425, 18 h

| SMILES | MIC [µg/mL] |
| --- | --- |
| CC1CN(c2c(F)cc3c(=O)ccn(C4CC4)c3c2F)CCN1 (stereo not given) | > 80 |
| CCn1ccc(=O)c2cc(F)c(N3CCNCC3)cc21 | 40 (≈ 145 µM) |
| O=c1ccn(C2CC2)c2cc(N3CCNCC3)c(F)cc12 | > 80 |

System: Escherichia coli
Assay: Antibacterial activity against Escherichia coli ATCC 29425 after 16 to 18 hrs by agar dilution method
Format: functional
Conditions: not given

| SMILES | MIC [µg/mL] |
| --- | --- |
| CC1CN(c2c(F)cc3c(=O)ccn(C4CC4)c3c2F)CCN1 (stereo not given) | > 64 |
| CCn1ccc(=O)c2cc(F)c(N3CCNCC3)cc21 | 64 (≈ 232 µM) |
| O=c1ccn(C2CC2)c2cc(N3CCNCC3)c(F)cc12 | > 64 |

System: Klebsiella pneumoniae
Assay: Antibacterial activity against Klebsiella pneumoniae ATCC 700603 after 18 hrs by broth dilution method
Format: functional
Conditions: ATCC 700603, 18 h

| SMILES | MIC [µg/mL] |
| --- | --- |
| CC1CN(c2c(F)cc3c(=O)ccn(C4CC4)c3c2F)CCN1 (stereo not given) | > 80 |
| CCn1ccc(=O)c2cc(F)c(N3CCNCC3)cc21 | > 80 |
| O=c1ccn(C2CC2)c2cc(N3CCNCC3)c(F)cc12 | > 80 |

System: Acinetobacter baumannii
Assay: Antibacterial activity against Acinetobacter baumannii ATCC 19606 after 18 hrs by broth dilution method
Format: functional
Conditions: ATCC 19606 = CIP 70.34 = JCM 6841, 18 h

| SMILES | MIC [µg/mL] |
| --- | --- |
| CC1CN(c2c(F)cc3c(=O)ccn(C4CC4)c3c2F)CCN1 (stereo not given) | > 80 |
| CCn1ccc(=O)c2cc(F)c(N3CCNCC3)cc21 | > 80 |
| O=c1ccn(C2CC2)c2cc(N3CCNCC3)c(F)cc12 | > 80 |

System: Enterococcus faecalis
Assay: Antibacterial activity against Enterococcus faecalis ATCC 29212 after 18 hrs by broth dilution method
Format: functional
Conditions: ATCC 29212, 18 h

| SMILES | MIC [µg/mL] |
| --- | --- |
| CC1CN(c2c(F)cc3c(=O)ccn(C4CC4)c3c2F)CCN1 (stereo not given) | > 80 |
| CCn1ccc(=O)c2cc(F)c(N3CCNCC3)cc21 | > 80 |
| O=c1ccn(C2CC2)c2cc(N3CCNCC3)c(F)cc12 | > 80 |

System: Klebsiella pneumoniae
Assay: Antibacterial activity against Klebsiella pneumoniae ATCC 13882 after 18 hrs by broth dilution method
Format: functional
Conditions: ATCC 13882, 18 h

| SMILES | MIC [µg/mL] |
| --- | --- |
| CC1CN(c2c(F)cc3c(=O)ccn(C4CC4)c3c2F)CCN1 (stereo not given) | > 80 |
| CCn1ccc(=O)c2cc(F)c(N3CCNCC3)cc21 | 40 (≈ 145 µM) |
| O=c1ccn(C2CC2)c2cc(N3CCNCC3)c(F)cc12 | > 80 |
